Source: publication PMC12624573, “The antigen presentation landscape of cytokine-stressed human pancreatic islets” (Cell reports, 2025)
Residues, ends and D or L forms follow the SMILES beside them. No end group written: not given here. *: point of attachment. Carboxymethyl = O=C(O)C*

Tests used:
[1] = tested on: CD4+ T cells from PBMC; assay: IFN-γ ELISpot, PBMC-derived in vitro expanded CD4+ T cell lines; type: cell-based, human; design: key to T cell recognition by PBMC from a T1D donor (mark E) / T cell recognition by PBMC from a T1D donor: E: T cell recognition by PBMC from a T1D donor was tested and verified; see Figure 5; conditions: for T1D Donor T cell response / non-T1D Donor T cell response: PBMC T cell lines, responding donors/donors tested; for Recognition by IFN-γ-secreting CD4 T cells (ELISpot): expanded PBMCs from a T1D donor, PTM peptides and native parents; for T cell recognition by PBMC from a T1D donor (mark E) / T cell recognition by PBMC from a T1D donor: MHC-II peptides; for T cell recognition by PBMC from a T1D donor (mark E): tested and verified, see Figure 5; for IFN-γ ELISpot response of expanded CD4+ T cells: control donor LSLP-074, frequencies ∼10-fold lower than for T1D-004 (Figures 5E, 5F, S5B); for T cell recognition by PBMC from a T1D donor: superscript E on the peptide, G = verified with QBL cells; for IFN-γ ELISpot response of expanded CD4 T cells: control donor LSLP-153, line expanded with megapool HPAP-DR3 + SEC-DR3, tested with individual peptides (Figure S5C)
[2] = target: HLA-DRB1*03:01 (Homo sapiens, UniProt P01903+P01911, A100K/A102G/A103R/A169T/F55Y/I96L/K41T/L162R/M171V/P40S/Q125H/Q178H/Q39Y/R42S/S66N/T106N/T262R/W38E/Y61H); assay: Fluorescence polarization competition peptide binding assay, HLA-DRB1*03:01
[3] = tested on: CD8+ T cells from PBMC; assay: IFN-γ ELISpot, PBMC-derived in vitro expanded CD8+ T cell lines; type: cell-based, human; conditions: PBMC T cell lines, responding donors/donors tested
[4] = tested on: islet-derived T cell lines; assay: Cytokine bead array (IFN-γ, TNF-α, IL-10), combined islet-derived T cell lines from donors with T1D; conditions: for islet derived T cell lines response to A2-S peptide pools or to single peptides: class I (A2) peptide pools or single peptides; for islet derived T cell lines response to A2-S peptide pools or to single peptides / islet derived T cell lines response to DR peptide pools or to single peptides: IFNg, TNFa, IL-10 secretion; for islet derived T cell lines response to DR peptide pools or to single peptides: class II (DR) peptide pools or single peptides
[5] = PTM and unmodified native Pool Peptides (pool PTM 1), long peptides
[6] = SEC (Secretory) A2 Peptides Set
[7] = DRB1*03:01+ donor 6579, cytokine bead array (Figures 6I–6K)
[8] = PTM and unmodified native Pool Peptides (pool PTM 1), 9-mer peptides
[9] = SEC (Secretory) DR3 Peptides Set
[10] = donor 6551, cytokine bead array, 48 h (Figures 6A–6C)

Molecule: CC(C)C[C@H](NC(=O)[C@H](C)NC(=O)[C@H](CCC(=O)O)NC(=O)[C@@H](NC(=O)[C@H](CC(C)C)NC(=O)[C@H](Cc1c[nH]cn1)NC(=O)[C@H](CO)NC(=O)CN)C(C)C)C(=O)N[C@@H](Cc1ccc(O)cc1)C(=O)N[C@@H](CC(C)C)C(=O)N[C@H](C(=O)N[C@@H](CSCC(=O)O)C(=O)NCC(=O)N[C@@H](CCC(=O)O)C(=O)N[C@@H](CCCNC(=N)N)C(=O)NCC(=O)N[C@@H](Cc1ccccc1)C(=O)O)C(C)C [peptide 146–1, GSHLVEALYLVXGERGF] (H-GSHLVEALYLVC(Carboxymethyl)GERGF-OH; N-terminus and C-terminus assumed)
- T1D Donor T cell response [1, 5]: 1/4
- non-T1D Donor T cell response [1, 5]: 0/4
- Recognition by IFN-γ-secreting CD4 T cells (ELISpot) [1]: recognized
- IC50 [2]: 270 to 300 nM

Molecule: AAAFVNQHL [compound 171]
- T1D Donor T cell response [3, 6]: 0/6
- non-T1D Donor T cell response [3, 6]: 0/4
- islet derived T cell lines response to A2-S peptide pools or to single peptides ([4]; donor 6551 lines): donors 6551 and 6578 lines negative
- islet derived T cell lines response to A2-S peptide pools or to single peptides ([4]; donor 6578 lines): donors 6551 and 6578 lines negative

Molecule: AVPEEEGPTVVLXPHPSLG [148–1]
- T1D Donor T cell response [1, 5]: 0/4
- non-T1D Donor T cell response [1, 5]: 0/4
- IFN-γ secretion, islet-derived T cell lines [4, 7]: recognized
- IL-10 secretion, islet-derived T cell lines [4, 7]: recognized
- TNF-α secretion, islet-derived T cell lines [4, 7]: recognized
- islet derived T cell lines response to DR peptide pools or to single peptides ([4]; donor 6550 lines): donor 6550 lines negative
- islet derived T cell lines response to DR peptide pools or to single peptides ([4]; donor 6579 lines, listed as 148-1): donor 6579 lines positive with TNFa and IL-10 secretion

Molecule: AVPEEEGPTVVLXPHPSLG [148–2]
- islet derived T cell lines response to DR peptide pools or to single peptides ([4]; donor 6579 lines, listed as 148-2): donor 6579 lines positive with IFNg, TNFa and IL-10 secretion

Molecule: EADFAIEAL [150-1]
- T1D Donor T cell response [3, 8]: 0/6
- non-T1D Donor T cell response [3, 8]: 0/4
- islet derived T cell lines response to A2-S peptide pools or to single peptides ([4]; donor 6551 lines): donor 6551 lines positive with IFNg, TNFa, IL10 secretion

Molecule: GSHLVEALYLVCGERGF [peptide 146]
- T1D Donor T cell response [1, 5]: 1/4
- non-T1D Donor T cell response [1, 5]: 0/4
- Recognition by IFN-γ-secreting CD4 T cells (ELISpot) [1]: recognized
- IC50 [2]: 270 to 300 nM

Molecule: KQGYQLIEGNQVLHS [compound 20]
- T1D Donor T cell response ([1]; DR3/DQ Set Peptides): 0/4
- non-T1D Donor T cell response ([1]; DR3/DQ Set Peptides): 0/2

Molecule: KRPAIWIDTGIHSRE
- T cell recognition by PBMC from a T1D donor (mark E) [1]: KRPA IWIDTGIHS RE ^ E

Molecule: KRPAIWIDTGIHSRE [peptide 10]
- T1D Donor T cell response ([1]; DR3/DQ Set Peptides): 4/4
- non-T1D Donor T cell response ([1]; DR3/DQ Set Peptides): 2/2
- Number of donors whose CD4 T cells recognized the peptide (IFN-γ ELISpot) ([1]; T1D donors, PBMC-derived lines (Figure 5J)): all four donors
- IFN-γ ELISpot response of expanded CD4+ T cells [1]: responded

Molecule: KSIYFVAGL [compound 173]
- T1D Donor T cell response [3, 6]: 0/6
- non-T1D Donor T cell response [3, 6]: 0/4
- islet derived T cell lines response to A2-S peptide pools or to single peptides ([4]; donor 6551 lines): donors 6551 and 6578 lines negative
- islet derived T cell lines response to A2-S peptide pools or to single peptides ([4]; donor 6578 lines): donors 6551 and 6578 lines negative

Molecule: LEKDIISDTSGDFRK [compound 8]
- T1D Donor T cell response ([1]; DR3/DQ Set Peptides): 0/4
- non-T1D Donor T cell response ([1]; DR3/DQ Set Peptides): 0/2

Molecule: LNKSINPDEAVAYGAA
- T cell recognition by PBMC from a T1D donor [1]: LNKS INPDEAVAY GAA ^ E

Molecule: LNKSINPDEAVAYGAA [peptide 15]
- T1D Donor T cell response ([1]; DR3/DQ Set Peptides): 1/4
- non-T1D Donor T cell response ([1]; DR3/DQ Set Peptides): 0/2

Molecule: NPAEFVVNTSNAGAG
- T cell recognition by PBMC from a T1D donor (mark E) [1]: NPAE FVVNTSNAG AG ^ E

Molecule: NPAEFVVNTSNAGAG [compound 22]
- T1D Donor T cell response ([1]; DR3/DQ Set Peptides): 0/4
- non-T1D Donor T cell response ([1]; DR3/DQ Set Peptides): 0/2

Molecule: NPANPAILSEASAPIPHDG [compound 27]
- T1D Donor T cell response ([1]; DR3/DQ Set Peptides): 0/4
- non-T1D Donor T cell response ([1]; DR3/DQ Set Peptides): 0/2

Molecule: NYPSLELDKMAHG
- T cell recognition by PBMC from a T1D donor (mark E) [1]: NYPSLELDKMAHG ^ E

Molecule: NYPSLELDKMAHG [peptide 182]
- T1D Donor T cell response [1, 9]: 0/4
- non-T1D Donor T cell response [1, 9]: 0/4
- IL-10 secretion, islet-derived T cell lines [4, 7]: recognized
- islet derived T cell lines response to DR peptide pools or to single peptides ([4]; donor 6579 lines): donor 6579 lines positive with IL-10 secretion

Molecule: QDPELPDKNMFTINRNTGVIS
- T cell recognition by PBMC from a T1D donor (mark E) [1]: QDPELPDKNM FTINRNTGV IS ^ E

Molecule: QDPELPDKNMFTINRNTGVIS [compound 29]
- T1D Donor T cell response ([1]; DR3/DQ Set Peptides): 2/4
- non-T1D Donor T cell response ([1]; DR3/DQ Set Peptides): 0/2

Molecule: QSIEGGAHEGLQHLGP
- T cell recognition by PBMC from a T1D donor [1]: QS IEGGAHEGL QHLGP ^ E

Molecule: QSIEGGAHEGLQHLGP [peptide 191]
- T1D Donor T cell response [1, 9]: 0/4
- non-T1D Donor T cell response [1, 9]: 0/4
- IL-10 secretion, islet-derived T cell lines ([4]; DRB1*03:01+ donor 6550, cytokine bead array (Figure 6H)): recognized
- islet derived T cell lines response to DR peptide pools or to single peptides ([4]; donor 6550 lines): donor 6550 lines positive with IL-10 secretion
- islet derived T cell lines response to DR peptide pools or to single peptides ([4]; donor 6579 lines): donor 6579 lines negative

Molecule: RPLNEQIAEAEEED [compound 187, secretory hormone eluted peptide from SCG3, pool SEC DR3]
- T1D Donor T cell response [1, 9]: 0/4
- non-T1D Donor T cell response [1, 9]: 1/4
- IFN-γ ELISpot response of expanded CD4 T cells [1]: IFN-γ responses

Molecule: RQRYEILTPNSIPK
- T cell recognition by PBMC from a T1D donor (mark E) [1]: RQR YEILTPNS IPK ^ E

Molecule: RQRYEILTPNSIPK [compound 26]
- T1D Donor T cell response ([1]; DR3/DQ Set Peptides): 2/4
- non-T1D Donor T cell response ([1]; DR3/DQ Set Peptides): 0/2

Molecule: RSAAVLALL [compound 175]
- T1D Donor T cell response [3, 6]: 1/5
- non-T1D Donor T cell response [3, 6]: 0/4
- IFN-γ secretion, islet-derived T cell lines [4, 10]: strong
- IL-10 secretion, islet-derived T cell lines [4, 10]: strong
- TNF-α secretion, islet-derived T cell lines [4, 10]: strong
- islet derived T cell lines response to A2-S peptide pools or to single peptides ([4]; donor 6551 lines): donor 6551 lines positive for IFNg, TNFa, IL10 secretion

Molecule: SANLHGGDLVANYPY [compound 155]
- T1D Donor T cell response ([1]; HPAP-DR3 Pool Peptides): 0/4
- non-T1D Donor T cell response ([1]; HPAP-DR3 Pool Peptides): 0/4

Molecule: SQGLVDREKGLSAEPGWQA [compound 180, secretory hormone eluted peptide from CHGA, pool SEC DR3]
- T1D Donor T cell response [1, 9]: 0/4
- non-T1D Donor T cell response [1, 9]: 1/4
- IFN-γ ELISpot response of expanded CD4 T cells [1]: IFN-γ responses

Molecule: SSPLDNKLNVEDVDSTKN [compound 188, secretory hormone eluted peptide from SCG3, pool SEC DR3]
- T1D Donor T cell response [1, 9]: 0/4
- non-T1D Donor T cell response [1, 9]: 1/4
- IFN-γ ELISpot response of expanded CD4 T cells [1]: IFN-γ responses

Molecule: SVPHFSDEDKDPE [compound 147, non-modified native peptide, pool PTM DR3]
- T1D Donor T cell response [1, 5]: 0/4
- non-T1D Donor T cell response [1, 5]: 0/4

Molecule: SVPHFXDEDKDPE [147-1, PTM peptide, X=phosphoserine, pool PTM DR3]
- T1D Donor T cell response [1, 5]: 0/4
- non-T1D Donor T cell response [1, 5]: 0/4

Molecule: TPGNALVVDPKKPFRK
- T cell recognition by PBMC from a T1D donor (mark E) [1]: TPGNA LVVDPKKPF RK ^ E

Molecule: TPGNALVVDPKKPFRK [compound 13]
- T1D Donor T cell response ([1]; DR3/DQ Set Peptides): 3/4
- non-T1D Donor T cell response ([1]; DR3/DQ Set Peptides): 1/2
- IFN-γ ELISpot response of expanded CD4+ T cells [1]: responded

Molecule: VPGNALVVDPRRPFRK
- T cell recognition by PBMC from a T1D donor (mark E) [1]: VPGNA LVVDPRRPF RK ^ E

Molecule: VPGNALVVDPRRPFRK [compound 12]
- T1D Donor T cell response ([1]; DR3/DQ Set Peptides): 1/4
- non-T1D Donor T cell response ([1]; DR3/DQ Set Peptides): 0/2

Molecule: VPIDIDKTKVQNIHPVESA [compound 4]
- T1D Donor T cell response ([1]; DR3/DQ Set Peptides): 0/4
- non-T1D Donor T cell response ([1]; DR3/DQ Set Peptides): 0/2

Molecule: VPIDIDKTKVQNIHPVESA [compound 152]
- T1D Donor T cell response ([1]; HPAP-DR3 Pool Peptides): 0/4
- non-T1D Donor T cell response ([1]; HPAP-DR3 Pool Peptides): 0/4

Molecule: WRPSLVPASAENVNKA
- T cell recognition by PBMC from a T1D donor (mark E) [1]: WRPS LVPASAENV NKA ^ E

Molecule: WRPSLVPASAENVNKA [compound 23]
- T1D Donor T cell response ([1]; DR3/DQ Set Peptides): 2/4
- non-T1D Donor T cell response ([1]; DR3/DQ Set Peptides): 0/2

Molecule: YYNLEKDVKQFRRKDS [peptide 3]
- T1D Donor T cell response ([1]; DR3/DQ Set Peptides): 0/4
- non-T1D Donor T cell response ([1]; DR3/DQ Set Peptides): 0/2

Molecule: YYYIQQDTKGDYQK [peptide 7]
- T1D Donor T cell response ([1]; DR3/DQ Set Peptides): 0/4
- non-T1D Donor T cell response ([1]; DR3/DQ Set Peptides): 0/2
